Bounds are passed on as bounds.

Assay [1] deals with Human RSV-A (“Long” strain). The assay is described as follows: RSV-A assay (CPE, ATPlite readout in Hep-2 cells). The conditions noted are these: human respiratory syncytial virus, 120 h; Hep-2 cells, MOI 0.1, 5-day incubation, ATPlite; read-out: Human RSV-A (“Long” strain) EC50. Format: cell-based. The text has this: Hep-2 cells, (originally derived from tumors grown in irradiated-cortisonised weanling rats that had been injected with epidermoid carcinoma tissue from a person's larynx, but later found to be indistinguishable from HeLa cells by PCR DNA analysis), were used for the culturing of genotype A, “Long” strain RSV. Flasks were inoculated with RSV and viral stocks were collected once cytopathic effect (CPE) was greater than 90%. Viral stocks in 25% sucrose media were snap frozen using liquid nitrogen to increase viral stability. Viral stock titers were quantified by tissue culture infectious dose 50% (TCID50) using 8,000 cells per well and 3-fold viral dilutions across a 96-well plate, cultured for 4 days. Viral stock titers were also quantified by a plaque forming unit assay, as described elsewhere.
Following extensive parameter testing, the final assay is run as follows: Hep-2 cells are seeded into the inner 60 wells of a 96-well plate at 8,000 cells per well in a volume of 50 μL using Growth Media (DMEM without phenol red, 1% L-Glut, 1% Penn/Strep, 1% nonessential amino acids, 10% heat-inactivated FBS). 2-fold serial dilutions of control and test compounds are added to the wells in duplicate in a total volume of 25 μL. Viral stock is then added to the wells at a multiplicity of infection (MOI) of 0.1 in a volume of 25 μL, bringing the total volume of each well to 100 μL. The MOI is calculated using the PFU/mL, or TCID50 if unavailable. Each 96-well plate has a control column of 6 wells with cells and virus but no compound (negative control, max CPE), a column with cells but no compound or virus (positive control, minimum CPE), and a column with no cells or virus or compound (background plate/reagent control). The control wells with cells but no virus are given an additional 25 μL of growth media containing an equal quantity of sucrose as those wells receiving the viral stock in order to keep consistent in media and volume conditions. The outer wells of the plate are filled with 125 μL of moat media (DMEM, 1% Penn/Strep) to act as a thermal and evaporative moat around the test wells. Following a 5-day incubation period, the plates are read using ATPlite (50 uL added per well), which quantifies the amount of ATP (a measure of cell health) present in each well. Assay plates are read using the Envision luminometer. […] EC50 ranges are as follows: A<0.2 μM; B≥0.2 μM.

Assay [2] relates to rHMPV-GFP (recombinant HMPV CAN97-83, MPV-GFP1). Put plainly: HMPV antiviral assay (eGFP fluorescence in Vero E6 cells). The class given is cell-based. The following applies: human metapneumovirus, Vero C1008, 120 h, read-out: rHMPV-GFP EC50. As to the method:
Method for HMPV Antiviral Assay
HMPV antiviral activity was evaluated using a recombinant version of HMPV CAN97-83 engineered to contain the coding sequence for enhanced green fluorescence protein (eGFP) in the 3′ end of the virus genome (MPV-GFP1, ViraTree). Vero E6 cells (ATCC #CCL-7) were seeded at a density of 12,000 cells/100 μL/well into 96-well cell plates (VENDOR) one day prior to the assay. On the day of screening, the cell culture medium was aspirated from the wells and cells were washed twice with serum-free Eagle's Modified Essential Medium (EMEM, ATCC #) containing 1% penicillin-streptomycin (Invitrogen) (SF-EMEM). Cell washes were performed by dispensing 100 μL SF-EMEM per well and immediately aspirating the wash medium from the well. Following the second wash step, serum-free OptiMEM (Invitrogen, Cat No.) (SF-OptiMEM) containing 0.5 μg/mL TPCK-Trypsin (VENDOR) and 1% penicillin-streptomycin was added to the cells at 50 μL/well. Compounds were added into the 96-well plates using a JANUS automated liquid handling system (VENDOR). Compounds were initially diluted 1:50 into an intermediate 96-well plate containing SF-OptiMEM prior to transfer to the assay plate (25 μL/well). Each of the test compounds were tested in duplicate wells at final concentrations starting from 8 μM or 2 μM using ½ stepwise dilutions for a total of 8 points. Virus infection was performed by preparing a working stock of MPV-GFP1 at a multiplicity of infection (MOI) equal to 0.05/25 μL and aliquoting 25 μL of virus inoculum to the compound and positive control wells. SF-OptiMEM was added (25 μL/well) to the appropriate wells to serve as a virus-free negative control for the assay. The final DMSO concentration of all wells is 0.5%. Plates were incubated at 32° C., 5% CO2 for 5 days. After 5 days incubation, eGFP fluorescence intensity was measured at […] using a Spectramax i3X plate reader (VENDOR).
Percent viral inhibition was calculated using the following equation: y=[[…](XQ/XP)]×100 Where XQ is the fluorescence intensity measured in a well containing recombinant MPV-GFP1-infected, compound-treated cells and XP is the average fluorescence intensity measured in the wells containing untreated cells infected with recombinant virus. EC50 values were then calculated by non-linear regression using a four-parameter curve logistic equation. The curve fit model employed was XLFit Dose Response One Site Model 200: y=(A+(B/(1+((x/C)^D)))) Where A is the minimum y value, B is the maximum y value, C is the log EC50 value, and D is the slope factor. The EC50 for each compound is listed in Table 2 and EC50 ranges are as follows: A<0.2 μM; B≥0.2 μM.

As usually defined, the EC50 is the concentration giving half of the maximal effect. Consider `COc1cc(C(=O)NC[C@](O)(c2cc3c(c(-c4ccc(F)cc4)n2)OC[C@]3(C)n2cnnc2)C(F)(F)F)ccc1OC1CC1` [Example 6, 4-cyclopropoxy-3-methoxy-N-((S)-3,3,3-trifluoro-2-((R)-7-(4-fluorophenyl)-3-methyl-3-(4H-1,2,4-triazol-4-yl)-2,3-dihydrofuro[2,3-c]pyridin-5-yl)-2-hydroxypropyl)benzamide], for which the EC50 in assay [1] is less than 200 nM; in assay [2] it was more than 200 nM.

In the case of `COc1cc(C(=O)NC[C@](O)(c2cc3c(c(-c4ccc(F)cc4)n2)OC[C@]3(C)n2ccnn2)C2CC2)ccc1OC1CC1` [Example 17, 4-cyclopropoxy-N-((S)-2-cyclopropyl-2-((R)-7-(4-fluorophenyl)-3-methyl-3-(1H-1,2,3-triazol-1-yl)-2,3-dihydrofuro[2,3-c]pyridin-5-yl)-2-hydroxyethyl)-3-methoxybenzamide], the EC50 in assay [1] and in assay [2] was less than 200 nM each time.

For `COc1cc(C(=O)NC[C@](C)(O)c2cc3c(c(-c4ccc(F)cc4)n2)OC[C@]3(C)n2cnnc2)ccc1OC1CC1` [Example 13, 4-cyclopropoxy-N-((S)-2-((R)-7-(4-fluorophenyl)-3-methyl-3-(4H-1,2,4-triazol-4-yl)-2,3-dihydrofuro[2,3-c]pyridin-5-yl)-2-hydroxypropyl)-3-methoxybenzamide], the half-maximal effective concentration (EC50) in assay [1] is less than 200 nM; in assay [2], more than 200 nM.

Turning to `COc1cc(C(=O)NC[C@](O)(c2cc3c(c(-c4ccc(F)cc4)n2)OC[C@]3(C)Cc2ncc[nH]2)C(F)(F)F)cc2cccnc12` [Example 23, N-((S)-2-((R)-3-((1H-imidazol-2-yl)methyl)-7-(4-fluorophenyl)-3-methyl-2,3-dihydrofuro[2,3-c]pyridin-5-yl)-3,3,3-trifluoro-2-hydroxypropyl)-8-methoxyquinoline-6-carboxamide], the EC50 in assay [1] and in assay [2] was less than 200 nM each time.

With `COc1cc(C(=O)NC[C@](O)(c2cc3c(c(-c4ccc(F)cc4)n2)OC[C@]3(C)n2ccnc2)C(F)(F)F)ccc1OC1CC1` [Example 9, 4-cyclopropoxy-3-methoxy-N-((S)-3,3,3-trifluoro-2-((R)-7-(4-fluorophenyl)-3-(1H-imidazol-1-yl)-3-methyl-2,3-dihydrofuro[2,3-c]pyridin-5-yl)-2-hydroxypropyl)benzamide], the results for the EC50 in assay [1] and in assay [2] were less than 200 nM and more than 200 nM, respectively.

On to `C[C@]1(c2cc[nH]n2)COc2c1cc([C@@](O)(CNC(=O)c1cc(OC3CC3)c3ncccc3c1)C(F)(F)F)nc2-c1ccc(F)cc1` [Example 22, 8-cyclopropoxy-N-((S)-3,3,3-trifluoro-2-((S)-7-(4-fluorophenyl)-3-methyl-3-(1H-pyrazol-3-yl)-2,3-dihydrofuro[2,3-c]pyridin-5-yl)-2-hydroxypropyl)quinoline-6-carboxamide], for which the figures for the EC50 in assay [1] and in assay [2] were less than 200 nM and more than 200 nM, respectively.

For `COc1cc(C(=O)NC[C@](O)(c2cc3c(c(-c4ccc(F)cc4)n2)OC[C@]3(C)n2cnnc2)C2CC2)cc2cccnc12` [Example 16, N-((S)-2-cyclopropyl-2-((R)-7-(4-fluorophenyl)-3-methyl-3-(4H-1,2,4-triazol-4-yl)-2,3-dihydrofuro[2,3-c]pyridin-5-yl)-2-hydroxyethyl)-8-methoxyquinoline-6-carboxamide], the concentration giving a half-maximal response (EC50) in assay [1] was less than 200 nM; in assay [2] it was more than 200 nM.

For `COc1cc(C(=O)NC[C@](O)(c2cc3c(c(-c4ccc(F)cc4)n2)OC[C@@]3(n2ccnn2)C(F)(F)F)C(F)(F)F)ccc1OC1CC1` [Example 1, 4-cyclopropoxy-3-methoxy-N-((S)-3,3,3-trifluoro-2-((R)-7-(4-fluorophenyl)-3-(1H-1,2,3-triazol-1-yl)-3-(trifluoromethyl)-2,3-dihydrofuro[2,3-c]pyridin-5-yl)-2-hydroxypropyl)benzamide], the EC50 in assay [1] and in assay [2] was more than 200 nM in each case.

For the origin of these results see US11945824B2, “Heterocyclic compounds as anti-viral agents” (priority 2020, dated 2024).
